{"source": "patent US12465065B2", "about": "“Method of preparing beverages with enhanced sweetness with cyclamate” (The Coca-Cola Company, priority 2017, dated 2025)", "key": {"[1]": {"settings": "30 ppm cyclamate in acidic water; one panelist", "method": "(§1) Ingredients were added to water while stirring until solids were visibly dissolved and the sample was poured into a glass bottle and stored at 4° C.\n(§2) Taste tests were carried out with one panelist. Bottles were removed from the refrigerator and about 25 ml of beverage was poured into 4 oz-plastic cups. The panelist was given mineral water to rinse their mouth before tasting and between tasting different samples. Unsalted crackers were also given to eat followed by rinsing the mouth with mineral water before tasting the next sample.\n(§3) Initially, the panelist was asked to determine the sweetness of the 30 ppm of cyclamate (Table 1)."}, "[2]": {"settings": "30 ppm cyclamate in acidic water; one panelist", "remark": "listed apart in the source", "method": "as §1, §2, §3\nThe panelist was asked to compare the taste profile of (i) a sample of 150 ppm rebaudioside M in acidic water and (ii) a sample of 150 ppm rebaudioside M and 30 ppm cyclamate (below the sweetness recognition threshold concentration) in acidic water. The panelist was asked to compare the sweetness and taste profiles of the two samples."}, "[3]": {"experiment": "Taste evaluation, sweetness compared to control sucrose acidic water solutions (Example 1)", "assay_type": "in vivo, human", "settings": "samples with 320 ppm rebaudioside M in acidic water (citric acid); one panelist; controls 8%, 9%, 10% sucrose", "from_the_text": "The panelist was instructed to sip, evaluate the sweetness, and then spit the sample in cups provided for that purpose."}}, "note": "Like-named read-outs stand apart in the source and are kept apart here."}
{"compound": "O=S(=O)([O-])NC1CCCCC1.[Na+]", "note": "[cyclamate, sodium cyclamate]", "values": [{"measurement": "sweetness of cyclamate alone", "setting": "[1]", "value": "not sweet"}, {"measurement": "sweetness of cyclamate alone", "setting": "[2]", "value": "not sweet"}]}
{"compound": "C=C1C[C@@]23CC[C@H]4[C@@](C)(CCC[C@@]4(C)C(=O)O[C@@H]4O[C@H](CO)[C@@H](O)[C@H](O[C@@H]5O[C@H](CO)[C@@H](O)[C@H](O)[C@H]5O)[C@H]4O[C@@H]4O[C@H](CO)[C@@H](O)[C@H](O)[C@H]4O)[C@@H]2CC[C@]1(O[C@@H]1O[C@H](CO)[C@@H](O)[C@H](O[C@@H]2O[C@H](CO)[C@@H](O)[C@H](O)[C@H]2O)[C@H]1O[C@@H]1O[C@H](CO)[C@@H](O)[C@H](O)[C@H]1O)C3", "note": "[rebaudioside M]", "values": [{"measurement": "sweetness compared to control sucrose acidic water solutions", "setting": "[3]", "value": "< 8", "unit": "%"}]}
